# From US11725036B2, “Modified lipidated relaxin B chain peptides and their therapeutic use” (Sanofi, priority 2018, dated 2023)
# Like-named read-outs stand apart in the source and are kept apart here. Starred links: 1 amine or outer side, 2 acyl side, 3 side chain; linkers in the order of their positions; H or OH if unused. Non-standard residues stand in square brackets, D forms with d. Residues, ends and D or L forms follow the SMILES beside them. Groups on a side chain read outwards from the residue. *: point of attachment. X1 = CCCCCCCCCCCCCCCC(=O)N[C@@H](CCC(=O)N[C@@H](CCC(=O)N[C@@H](CCC(=O)NCCCOCCOCCOCCCNC(=O)CCC(=O)NCCCOCCOCCOCCCNC(=O)CCC(=O)NCCCOCCOCCOCCCN*)C(=O)O)C(=O)O)C(=O)O; X2 = CCCCCCCCCCCCCCCC(=O)N[C@@H](CCC(=O)N[C@@H](CCC(=O)N[C@@H](CCC(=O)NCCCOCCOCCOCCCNC(=O)CCC(=O)NCCCOCCOCCOCCCN*)C(=O)O)C(=O)O)C(=O)O; Suc = O=C(CCC(=O)[*:2])[*:1]; αMeK = C[C@](N)(CCCCN)C(=O)O; Aib = CC(C)(N)C(=O)O
# Key:
# RXFP1 = biological target: T1, RXFP1 (Homo sapiens, UniProt Q9HBX9); experiment: OVCAR5 cAMP assay (HTRF); format: cell-based; details: for EC50: OVCAR 5 cells expressing endogenous RXFP1, cAMP readout; for Emax: OVCAR 5 cells, maximal cAMP relative to H2-relaxin
# T1 construct: OVCAR5 cells expressing endogenous RXFP1; endogenous in cells; host or cells: OVCAR5
# T1 sequence (Q9HBX9 1-757): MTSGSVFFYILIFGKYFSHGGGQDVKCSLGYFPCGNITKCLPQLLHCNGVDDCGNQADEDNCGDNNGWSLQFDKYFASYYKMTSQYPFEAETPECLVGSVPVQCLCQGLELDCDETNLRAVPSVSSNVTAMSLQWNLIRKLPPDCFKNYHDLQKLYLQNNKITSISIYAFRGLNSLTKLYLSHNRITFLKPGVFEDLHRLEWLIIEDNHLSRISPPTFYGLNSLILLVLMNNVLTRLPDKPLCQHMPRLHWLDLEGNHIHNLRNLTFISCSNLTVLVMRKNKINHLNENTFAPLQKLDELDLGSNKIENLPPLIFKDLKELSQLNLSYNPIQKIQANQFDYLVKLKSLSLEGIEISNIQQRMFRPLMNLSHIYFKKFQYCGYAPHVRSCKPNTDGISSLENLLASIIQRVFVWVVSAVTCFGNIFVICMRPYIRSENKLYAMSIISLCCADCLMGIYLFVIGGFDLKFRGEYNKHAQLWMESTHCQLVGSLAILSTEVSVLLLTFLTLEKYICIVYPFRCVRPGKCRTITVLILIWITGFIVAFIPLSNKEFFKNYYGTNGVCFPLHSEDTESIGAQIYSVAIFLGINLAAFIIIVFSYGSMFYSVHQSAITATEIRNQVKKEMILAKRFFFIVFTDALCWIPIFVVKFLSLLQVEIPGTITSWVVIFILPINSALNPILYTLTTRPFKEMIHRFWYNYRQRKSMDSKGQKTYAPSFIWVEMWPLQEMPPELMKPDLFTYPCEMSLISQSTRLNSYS
# Summary of the method: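 Peptide agonism measured as intracellular cAMP (HTRF) after 30 min at 37° C in serum-free medium, following 40 min 1 mM IBMX preincubation of OVCAR5 cells. Nonlinear regression gave EC50; Emax % = 100 × compound maximal cAMP / H2-relaxin maximal cAMP.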
# [1] = Solubility testing in buffer; format: physicochemical; details: target solubility 10.0 mg/ml
# Procedure: Prior to the testing of solubility of a peptide batch, its purity (HPLC-UV) was determined.
# Acetate Buffer 50 mM pH4.5: 0.75 g C2H3C02Na,3H2O (Sigma S7545)+0.35 ml CH3CO2H 100% solution dissolved in Millipore water, adjusted to pH with diluted (1:1) CH3CO2H and diluted to 250 ml with Millipore water.
# In a 4 ml Ependorph vial, an accurately weighed sample of compound was diluted in study media to obtain target concentration of 2, 6 or 10 mg/ml of pure compound. The sample vials were shacked (rock 'roll shaker) for ˜19 h. 300 μL aliquots were filtered through a Millipore “Solvinert” plate (0.45 μm-PTFE hydrophilic).
# pH was measured with a micro electrode
# Waters Acquity UPLC System with DAD detector
# Column: Waters Peptide Column CSH C18 (130 Å; 1.7 μm; 50*2.1 mm)
# Column temperature: 60° C.
# Full loop (about 5 μL)—overfill factor 5
# Weak et Strong wash: H2O/ACN (75/25; V/V); Seal wash: H2O/IsOH (95/5; V/V). Mobile phase:
# Solvent A: 0.05% TFA in H2O; Solvent B: 0.035% TFA in CH3CN
# Gradient: from 0 to 12 min B=2% to 60%, from 12 to 14 min B=60% to 100%. Column washing 100% B 1 min, column equilibration 2% B 2.5 min.
# UV detector: wavelength: 220 nm.
# [2] = acetate buffer 50 mM pH 4.5, read-out: Solubility Acetate buffer pH 4.5
# [3] = phosphate buffer 50 mM pH 7.4, read-out: Solubility phosphate buffer pH 7.4
EC50 (RXFP1),Emax (RXFP1),"solubility [1, 2]","solubility [1, 3]",Compound
0.56 nM,91%,8250 µg/mL,8720 µg/mL,CCCCCCCCCCCCCCCC(=O)N[C@@H](CCC(=O)N[C@@H](CCC(=O)N[C@@H](CCC(=O)NCCCOCCOCCOCCCNC(=O)CCC(=O)NCCCOCCOCCOCCCNC(=O)CCC(=O)NCCCOCCOCCOCCCNC(=O)CCC(=O)NCCCC[C@H](NC(=O)CNC(=O)[C@H](CCC(=O)O)NC(=O)C(C)(C)NC(=O)C(C)(C)NC(=O)[C@@H](NC(=O)[C@H](CCCCNC(C)=O)NC(=O)[C@H](C)NC(=O)[C@H](CCCNC(=N)N)NC(=O)[C@@H](NC(=O)[C@H](CCCCN)NC(=O)[C@H](CCC(=O)O)NC(=O)[C@H](CCCNC(=N)N)NC(=O)CNC(=O)[C@H](CCC(=O)O)NC(=O)[C@H](CC(C)C)NC(C)=O)C(C)C)[C@@H](C)CC)C(=O)N[C@@H](CO)C(=O)N[C@H](C(=O)N[C@@H](Cc1ccccc1)C(=O)NC(C)(C)C(=O)N[C@@H](CCCNC(=N)N)C(=O)N[C@@H](CCCNC(=N)N)C(=O)N[C@@H](C)C(=O)N[C@@H](CCCCNC(C)=O)C(N)=O)[C@@H](C)O)C(=O)O)C(=O)O)C(=O)O [compound 72] (Ac-LEGREKVRAK(Ac)I[Aib][Aib]EGK([Suc-X1])STF[Aib]RRAK(Ac)-NH2)
1.54 nM,92%,6750 µg/mL,6580 µg/mL,CCCCCCCCCCCCCCCC(=O)N[C@@H](CCC(=O)N[C@@H](CCC(=O)N[C@@H](CCC(=O)NCCCOCCOCCOCCCNC(=O)CCC(=O)NCCCOCCOCCOCCCNC(=O)CCC(=O)NCCCC[C@H](NC(=O)CNC(=O)[C@H](CCC(=O)O)NC(=O)C(C)(C)NC(=O)C(C)(C)NC(=O)[C@@H](NC(=O)[C@H](CCCCNC(C)=O)NC(=O)[C@H](C)NC(=O)[C@H](CCCNC(=N)N)NC(=O)[C@@H](NC(=O)[C@H](CCCCN)NC(=O)[C@H](CCC(=O)O)NC(=O)[C@H](CCCNC(=N)N)NC(=O)CNC(=O)[C@H](CCC(=O)O)NC(=O)[C@H](CC(C)C)NC(C)=O)C(C)C)[C@@H](C)CC)C(=O)N[C@@H](CO)C(=O)N[C@H](C(=O)N[C@@H](Cc1c[nH]c2ccccc12)C(=O)N[C@@H](CO)C(=O)N[C@H](CCCCN)C(=O)N[C@@H](CCCNC(=N)N)C(=O)N[C@@H](CCCCN)C(=O)N[C@@H](CCCCNC(C)=O)C(N)=O)[C@@H](C)O)C(=O)O)C(=O)O)C(=O)O [compound 18] (Ac-LEGREKVRAK(Ac)I[Aib][Aib]EGK([Suc-X2])STWS[dK]RKK(Ac)-NH2)
28.7 nM,100%,6580 µg/mL,6750 µg/mL,CCCCCCCCCCCCCCCC(=O)N[C@@H](CCC(=O)N[C@@H](CCC(=O)N[C@@H](CCC(=O)NCCCOCCOCCOCCCNC(=O)CCC(=O)NCCCOCCOCCOCCCNC(=O)CCC(=O)NCCCOCCOCCOCCCNC(=O)CCC(=O)NCCCC[C@H](NC(=O)CNC(=O)[C@H](CCC(=O)O)NC(=O)C(C)(C)NC(=O)C(C)(C)NC(=O)[C@@H](NC(=O)[C@H](CCCCNC(C)=O)NC(=O)[C@H](C)NC(=O)[C@H](CCCNC(=N)N)NC(=O)[C@@H](NC(=O)[C@H](CCC(N)=O)NC(=O)[C@H](CCC(=O)O)NC(=O)[C@H](CCCNC(=N)N)NC(=O)CNC(=O)[C@H](CCC(=O)O)NC(=O)[C@H](CC(C)C)NC(C)=O)C(C)C)[C@@H](C)CC)C(=O)N[C@@H](CO)C(=O)N[C@H](C(=O)N[C@@H](Cc1ccccc1)C(=O)N[C@@H](CO)C(=O)N[C@@](C)(CCCCN)C(=O)N[C@@H](CCCNC(=N)N)C(=O)N[C@@H](C)C(=O)N[C@@H](CCCCNC(C)=O)C(N)=O)[C@@H](C)O)C(=O)O)C(=O)O)C(=O)O [compound 25] (Ac-LEGREQVRAK(Ac)I[Aib][Aib]EGK([Suc-X1])STFS[αMeK]RAK(Ac)-NH2)
0.36 nM,95%,8280 µg/mL,8770 µg/mL,CCCCCCCCCCCCCCCC(=O)N[C@@H](CCC(=O)N[C@@H](CCC(=O)N[C@@H](CCC(=O)NCCCOCCOCCOCCCNC(=O)CCC(=O)NCCCOCCOCCOCCCNC(=O)CCC(=O)NCCCOCCOCCOCCCNC(=O)CCC(=O)NCCCC[C@H](NC(=O)CNC(=O)[C@H](CCC(=O)O)NC(=O)C(C)(C)NC(=O)C(C)(C)NC(=O)[C@@H](NC(=O)[C@H](CCCCNC(C)=O)NC(=O)[C@H](C)NC(=O)[C@H](CCCNC(=N)N)NC(=O)[C@@H](NC(=O)[C@H](CCCCN)NC(=O)[C@H](CCC(=O)O)NC(=O)[C@H](CCCNC(=N)N)NC(=O)CNC(=O)[C@H](CCC(=O)O)NC(=O)[C@H](CC(C)C)NC(C)=O)C(C)C)[C@@H](C)CC)C(=O)N[C@@H](CO)C(=O)N[C@H](C(=O)N[C@@H](Cc1c[nH]c2ccccc12)C(=O)N[C@@H](CO)C(=O)NC(C)(C)C(=O)N[C@@H](CCCNC(=N)N)C(=O)N[C@@H](C)C(=O)N[C@@H](CCCCN)C(N)=O)[C@@H](C)O)C(=O)O)C(=O)O)C(=O)O [compound 71] (Ac-LEGREKVRAK(Ac)I[Aib][Aib]EGK([Suc-X1])STWS[Aib]RAK-NH2)
6.8 nM,88%,6330 µg/mL,6720 µg/mL,CCCCCCCCCCCCCCCC(=O)N[C@@H](CCC(=O)N[C@@H](CCC(=O)N[C@@H](CCC(=O)NCCCOCCOCCOCCCNC(=O)CCC(=O)NCCCOCCOCCOCCCNC(=O)CCC(=O)NCCCC[C@H](NC(=O)CNC(=O)[C@H](CCC(=O)O)NC(=O)C(C)(C)NC(=O)C(C)(C)NC(=O)[C@@H](NC(=O)[C@H](CCCCNC(C)=O)NC(=O)[C@H](C)NC(=O)[C@H](CCCNC(=N)N)NC(=O)[C@@H](NC(=O)[C@H](CCCCN)NC(=O)[C@H](CCC(=O)O)NC(=O)[C@H](CCCNC(=N)N)NC(=O)CNC(=O)[C@H](CCC(=O)O)NC(=O)[C@H](CC(C)C)NC(C)=O)C(C)C)[C@@H](C)CC)C(=O)N[C@@H](CO)C(=O)N[C@H](C(=O)N[C@@H](Cc1ccccc1)C(=O)N[C@@H](CO)C(=O)N[C@H](CCCCN)C(=O)N[C@@H](CCCNC(=N)N)C(=O)N[C@@H](C)C(=O)N[C@@H](CCCCNC(C)=O)C(N)=O)[C@@H](C)O)C(=O)O)C(=O)O)C(=O)O [compound 16] (Ac-LEGREKVRAK(Ac)I[Aib][Aib]EGK([Suc-X2])STFS[dK]RAK(Ac)-NH2)
1.34 nM,94%,8240 µg/mL,9680 µg/mL,CCCCCCCCCCCCCCCC(=O)N[C@@H](CCC(=O)N[C@@H](CCC(=O)N[C@@H](CCC(=O)NCCCOCCOCCOCCCNC(=O)CCC(=O)NCCCOCCOCCOCCCNC(=O)CCC(=O)NCCCOCCOCCOCCCNC(=O)CCC(=O)NCCCC[C@H](NC(=O)CNC(=O)[C@H](CCC(=O)O)NC(=O)[C@@H](NC(=O)C(C)(C)NC(=O)[C@@H](NC(=O)[C@H](CCCCNC(C)=O)NC(=O)[C@H](C)NC(=O)[C@H](CCCNC(=N)N)NC(=O)[C@@H](NC(=O)[C@H](CCCCN)NC(=O)[C@H](CCC(=O)O)NC(=O)[C@H](CCCNC(=N)N)NC(=O)CNC(=O)[C@H](CCC(=O)O)NC(=O)[C@H](CC(C)C)NC(C)=O)C(C)C)[C@@H](C)CC)[C@@H](C)CC)C(=O)N[C@@H](CO)C(=O)N[C@H](C(=O)N[C@@H](Cc1c[nH]c2ccccc12)C(=O)N[C@@H](CO)C(=O)NC(C)(C)C(=O)N[C@@H](CCCNC(=N)N)C(=O)N[C@@H](CCCCN)C(=O)N[C@@H](CCCCNC(C)=O)C(N)=O)[C@@H](C)O)C(=O)O)C(=O)O)C(=O)O [compound 70] (Ac-LEGREKVRAK(Ac)I[Aib]IEGK([Suc-X1])STWS[Aib]RKK(Ac)-NH2)
